14 molecules from PubChem BioAssay (NCI) can be followed below.

“And” between values parts separate entries of the source, which are not always exact repeats. Equal entries are not always repeated.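 Assay format: 96-well plates, 48-hour exposure. The concentration for 50% growth inhibition is given as GI50. At the TGI there is no net growth.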 The source made the active and inactive calls. Cut-off read from the data, not from the text of the source: active = GI50 below about 0.43 µM; inactive = the rest.

Among the test systems are KM12 colon; SNB-19 CNS; NCI-H460 lung; XF 498 CNS; SNB-75 CNS; SF-268 CNS; LXFL 529 NSCLC; MCF7 breast.
Holding throughout (test): DTP human tumour cell line panel, 48 h

Take `N#Cc1cccc(/C=N/N=C(\N)NO)c1`: the TGI in the test on KM12 colon, in the test with SNB-19 CNS, in the test with NCI-H460 lung, in the test on XF 498 CNS, with SNB-75 CNS and with SF-268 CNS was > 100 µM in each case. Further, in the test on LXFL 529 NSCLC, the total growth inhibition concentration (TGI) is > 100 µM.

Take `CN(C)c1ccc(/C=c2\sc3nc4ccccc4n3c2=O)cc1`: the total growth inhibition concentration (TGI) with KM12 colon, with SNB-19 CNS, with NCI-H460 lung, with XF 498 CNS, with SNB-75 CNS and in the test with SF-268 CNS was > 100 µM throughout. Further, the TGI in the test on LXFL 529 NSCLC is > 100 µM.

`COc1ccc(C2ON(c3cccc(C)n3)CC=C2C)cc1` (configuration not stated): the concentration for total growth inhibition (TGI) in the test with KM12 colon, with SNB-19 CNS, in the test with NCI-H460 lung, in the test with XF 498 CNS, in the test on SNB-75 CNS and in the test on SF-268 CNS was > 100 µM in each case. The total growth inhibition concentration (TGI) with LXFL 529 NSCLC is > 100 µM.

Consider `CCN(CC)c1ccc(N=Nc2ccc(-c3nc4ccc[n+](C)c4o3)cc2)cc1`, for which the concentration for total growth inhibition (TGI) in the test on KM12 colon amounted to 24.5 µM; in the test on SNB-19 CNS it was 26.1 µM; in the test with NCI-H460 lung it was 29.2 µM; in the test on XF 498 CNS, 23.5 µM; in the test on SNB-75 CNS it was 24 µM; in the test with SF-268 CNS, 31.4 µM. In addition, in the test with LXFL 529 NSCLC, the concentration for total growth inhibition (TGI) is 16.7 µM.

On to `NCCCNCCCCNC(=O)C(O)NC(=O)CCCCCCN=C(N)N` (configuration not stated), for which the GI50 is 1360 µM with KM12 colon; 1750 µM with MCF7 breast; 2080 µM in the test with SNB-19 CNS; > 2770 µM with NCI-H460 lung; > 1870 µM with SNB-75 CNS; 3070 µM in the test on SF-268 CNS. The TGI was 619 µM and > 5000 µM with KM12 colon; 750 µM and > 5000 µM in the test with MCF7 breast; 750 µM and > 4430 µM with SNB-19 CNS; 750 µM and > 5000 µM with NCI-H460 lung; 119 µM in the test with XF 498 CNS; 671 µM and > 3170 µM with SNB-75 CNS. Also, in the test on SF-268 CNS, the total growth inhibition concentration (TGI) is > 5000 µM.

Take `NC(N)=NS(=O)(=O)c1ccc(Nc2c3ccccc3nc3c(C(=O)Nc4ccc(S(N)(=O)=O)cc4)cccc23)cc1`: the concentration for total growth inhibition (TGI) in the test with KM12 colon is > 100 µM; with SNB-19 CNS it was > 100 µM; in the test on NCI-H460 lung it was > 100 µM; in the test with XF 498 CNS, 69.8 µM; with SNB-75 CNS it was > 100 µM; in the test on SF-268 CNS it was > 100 µM. In the test with LXFL 529 NSCLC, this molecule had a TGI of 78.5 µM.

Take `COC(=O)Nc1nc2ccc(Br)cc2[nH]1`: the TGI in the test on KM12 colon was > 100 µM; with NCI-H460 lung it was > 100 µM; with XF 498 CNS, 86.5 µM; with SNB-75 CNS it was > 100 µM; with SF-268 CNS, > 100 µM; in the test on LXFL 529 NSCLC, > 100 µM.

`COc1ccc(OCC(=O)O)c(C(=O)CCC(=O)O)c1`: the concentration for total growth inhibition (TGI) in the test on KM12 colon, in the test with SNB-19 CNS, in the test on NCI-H460 lung, in the test with XF 498 CNS, in the test on SNB-75 CNS and in the test on SF-268 CNS was > 100 µM in each case. In the test on LXFL 529 NSCLC, the TGI was > 100 µM.

For `Cc1cc2c(C)nn(Cc3ccc(Cl)cc3)c2c(C#N)c1C`, the TGI with SNB-19 CNS, in the test on XF 498 CNS, in the test with SF-268 CNS and with LXFL 529 NSCLC was > 100 µM each time.

Regarding `COc1cccc(NC(=O)/C(Cc2nc3ccccc3nc2C)=N/NC(=O)C[n+]2ccccc2)c1`, the total growth inhibition concentration (TGI) with KM12 colon, in the test with SNB-19 CNS, in the test on NCI-H460 lung, in the test on XF 498 CNS, in the test with SNB-75 CNS and with SF-268 CNS was > 100 µM throughout. For the same molecule, in the test on LXFL 529 NSCLC, the TGI is > 100 µM.

As to `N#CC1CC2(CCN1C(=O)c1ccccc1)OCCO2` (configuration not stated), the TGI in the test with KM12 colon, in the test on SNB-19 CNS, with NCI-H460 lung, with XF 498 CNS, in the test on SNB-75 CNS and with SF-268 CNS was > 100 µM throughout. For the same molecule, in the test with LXFL 529 NSCLC, the total growth inhibition concentration (TGI) is > 100 µM.

On to `CCOC(=O)c1[nH]c(COC(C)=O)c2c1CCCCCCCCCC2`, for which the TGI in the test with KM12 colon, in the test on SNB-19 CNS, in the test on NCI-H460 lung, in the test with XF 498 CNS, in the test with SNB-75 CNS and in the test on SF-268 CNS was > 100 µM throughout. The TGI with LXFL 529 NSCLC was > 100 µM.

For `COC(C)(C)C/C=C/C(C)=C/C=C/C(C)=C\C=C\C(C)=C\C=C\C=C(C)\C=C\C=C(C)\C=C\C=C(C)\C=C\CC(C)(C)OC`, the GI50 in the test on SNB-19 CNS, in the test with NCI-H460 lung, with SNB-75 CNS and in the test with SF-268 CNS was > 150 µg/mL in each case. Also, the total growth inhibition concentration (TGI) with SNB-19 CNS, in the test on NCI-H460 lung, with SNB-75 CNS and in the test with SF-268 CNS was > 150 µg/mL throughout. Moreover, the result with XF 498 CNS and in the test on LXFL 529 NSCLC was inactive.

As for `O=C(NC12CC3CC(CC(C3)C1)C2)C(=O)c1c[nH]c2ccccc12`, the TGI in the test with KM12 colon came to 28.5 µM; in the test with SNB-19 CNS, 32.3 µM; in the test with NCI-H460 lung, 25.7 µM; in the test with XF 498 CNS, 25.7 µM; with SF-268 CNS, 30.4 µM; in the test on LXFL 529 NSCLC, 26.5 µM.
